Source: ChEMBL document CHEMBL2321853, “Novel acylethanolamide derivatives that modulate body weight through enhancement of hypothalamic pro-opiomelanocortin (POMC) and/or decreased neuropeptide Y (NPY)” (J Med Chem, 2013)
Calls of active or inactive are those of the source. The calls are words filed in the database; no cut-off is given here.

Legend:
Mus musculus [1] = experiment: Antiobesity activity in Sabra mouse assessed as change in body weight at 1 mg/kg, ip administered on day 8, 12 and 43 measured on day 54 relative to control; assay type: functional; conditions: route intraperitoneal
Mus musculus [2] = experiment: Antiobesity activity in Sabra mouse assessed as change in body weight at 1 mg/kg, ip administered on day 8, 9, 10, 11, 14, 18, 24 and 32 measured on day 9 relative to control; assay type: functional; conditions: route intraperitoneal
[3] = biological target: Cannabinoid receptor 1 (Homo sapiens) (UniProt P21554); experiment: Displacement of [3H]SR141716A from human CB1 receptor expressed in rat Chem-1 cell membrane at 10 uM relative to control; assay type: cell membranes
Sequence of Cannabinoid receptor 1 (Homo sapiens) (P21554 whole entry): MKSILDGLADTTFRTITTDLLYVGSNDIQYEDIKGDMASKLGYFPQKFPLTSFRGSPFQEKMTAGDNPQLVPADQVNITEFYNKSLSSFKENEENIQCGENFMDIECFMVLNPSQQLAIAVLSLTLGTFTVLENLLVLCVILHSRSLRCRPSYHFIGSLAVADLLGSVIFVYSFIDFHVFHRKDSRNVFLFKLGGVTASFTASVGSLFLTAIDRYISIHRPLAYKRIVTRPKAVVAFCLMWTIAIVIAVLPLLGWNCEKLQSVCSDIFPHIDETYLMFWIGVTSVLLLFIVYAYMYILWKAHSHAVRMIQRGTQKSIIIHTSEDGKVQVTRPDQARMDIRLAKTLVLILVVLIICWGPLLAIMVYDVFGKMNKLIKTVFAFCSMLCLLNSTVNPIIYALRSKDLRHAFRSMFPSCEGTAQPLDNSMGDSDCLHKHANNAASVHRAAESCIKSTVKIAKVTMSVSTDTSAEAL

Mus musculus [4] = experiment: Antiobesity activity in C57BL/6 mouse assessed as weight loss at 5 mg/kg, ip administered on day 1, 4, 5, 7, 17, 15, 19 measured on day 17 relative to control; assay type: functional; conditions: route intraperitoneal
Hypothalamus [5] = experiment: Effect on NPY gene expression in Sabra mouse hypothalamus assessed as change in mRNA level at 1 mg/kg, ip administered on day 8, 9, 10, 11, 14, 18, 24 and 32 by RT-PCR analysis relative to GAPDH; assay type: functional; conditions: route intraperitoneal
Hypothalamus [6] = experiment: Effect on CAMKK2 gene expression in Sabra mouse hypothalamus assessed as change in mRNA level at 1 mg/kg, ip administered on day 8, 9, 10, 11, 14, 18, 24 and 32 by RT-PCR analysis relative to GAPDH; assay type: functional; conditions: route intraperitoneal
Mus musculus [7] = experiment: Enhancement of cognitive function in Sabra mouse at 1 mg/kg, ip administered on day 8, 12 and 43 by eight-arm maze test; assay type: functional, organism-based; parameters: dose 1 mg/kg
Mus musculus [8] = experiment: Antiobesity activity in Sabra mouse assessed as change in body weight at 1 mg/kg, ip administered on day 8, 12 and 43 measured on day 71 relative to control; assay type: functional; conditions: route intraperitoneal
Hypothalamus [9] = experiment: Effect on POMC gene expression in Sabra mouse hypothalamus assessed as increase in mRNA level at 10 mg/kg, ip administered on day 6 to 10 measured on day 16 by RT-PCR analysis relative to control; assay type: functional; conditions: route intraperitoneal
Mus musculus [10] = experiment: Antiobesity activity in C57BL/6 mouse assessed as change in glucose level in blood at 5 mg/kg, ip administered on day 1, 4, 5, 7, 17, 15, 19 measured on day 9 relative to control; assay type: functional; conditions: route intraperitoneal
Mus musculus [11] = experiment: Hepatotoxicity in Sabra mouse assessed as coagulative necrosis changes at 1 mg/kg, ip administered on day 8, 9, 10, 11, 14, 18, 24 and 32 by hematoxylin and eosin staining-based histopathological analysis; assay type: toxicity, organism-based; parameters: dose 1 mg/kg, route intraperitoneal; conditions: in vivo
Mus musculus [12] = experiment: Antiobesity activity in Sabra mouse assessed as change in food consumption at 1 mg/kg, ip administered on day 8, 9, 10, 11, 14, 18, 24 and 32 measured after 6 weeks relative to control; assay type: functional; conditions: route intraperitoneal
Hypothalamus [13] = experiment: Decrease in 2-AG level in Sabra mouse hypothalamus at 8 mg/kg, ip for 39 days (reference value: 100 +/- 7 %); assay type: functional; parameters: scale not given: the % may be the effect or the level left; conditions: route intraperitoneal
Mus musculus [14] = experiment: Antiobesity activity in C57BL/6 mouse assessed as change in AST level at 5 mg/kg, ip measured on day 36 (reference value: 146.7 IU/L); assay type: functional; conditions: route intraperitoneal
Mus musculus [15] = experiment: Antiobesity activity in C57BL/6 mouse assessed as weight loss at 5 mg/kg, ip administered on day 1, 4, 5, 7, 17, 15, 19 measured on day 3 relative to control; assay type: functional; conditions: route intraperitoneal
Hypothalamus [16] = experiment: Effect on POMC gene expression in ip dosed Sabra mouse hypothalamus assessed as increase in mRNA level administered on day 6 to 10 measured on day 16 by RT-PCR analysis relative to control; assay type: functional, organism-based
Mus musculus [17] = experiment: Antiobesity activity in leptin-deficient ob/ob mouse assessed as reduction in body weight at 10 mg/kg via oral gavage; assay type: functional, organism-based; parameters: dose 10 mg/kg
Mus musculus [18] = experiment: Antiobesity activity in Sabra mouse assessed as reduction in body weight at 1 mg/kg, ip administered on day 6 to 10 measured on day 16 relative to control; assay type: functional; parameters: scale not given: the % may be the effect or the level left; conditions: route intraperitoneal
Mus musculus [19] = experiment: Antiobesity activity in C57BL/6 mouse assessed as change in glucose level in blood at 5 mg/kg, ip administered on day 1, 4, 5, 7, 17, 15, 19 measured on day 5 relative to control; assay type: functional; conditions: route intraperitoneal
Mus musculus [20] = experiment: Antiobesity activity in Sabra mouse assessed as change in body weight at 1 mg/kg, ip administered on day 8, 12 and 43 measured on day 50 relative to control; assay type: functional; conditions: route intraperitoneal
Mus musculus [21] = experiment: Antiobesity activity in Sabra mouse assessed as reduction in body weight at 1 mg/kg, ip administered on day 0, 10, 11, 12, 24, 29 measured on day 29 relative to control; assay type: functional; parameters: scale not given: the % may be the effect or the level left; conditions: route intraperitoneal
Mus musculus [22] = experiment: Antiobesity activity in Sabra mouse assessed as reduction in body weight at 1 mg/kg, ip administered on day 0, 10, 11, 12, 24, 29 measured on day 24 relative to control; assay type: functional; parameters: scale not given: the % may be the effect or the level left; conditions: route intraperitoneal
Mus musculus [23] = experiment: Antiobesity activity in Sabra mouse assessed as change in body weight at 1 mg/kg, ip administered on day 8, 9, 10, 11, 14, 18, 24 and 32 measured on day 4 relative to control; assay type: functional; conditions: route intraperitoneal
Mus musculus [24] = experiment: Antiobesity activity in Sabra mouse assessed as change in body weight at 1 mg/kg, ip administered on day 8, 12 and 43 measured on day 12 relative to control; assay type: functional; conditions: route intraperitoneal
Mus musculus [25] = experiment: Hepatotoxicity in Sabra mouse assessed as centrilobular apoptotic changes at 1 mg/kg, ip administered on day 8, 9, 10, 11, 14, 18, 24 and 32 by hematoxylin and eosin staining-based histopathological analysis; assay type: toxicity, organism-based; parameters: dose 1 mg/kg, route intraperitoneal; conditions: in vivo
Mus musculus [26] = experiment: Antiobesity activity in Sabra mouse assessed as change in food consumption at 1 mg/kg, ip administered on day 8, 9, 10, 11, 14, 18, 24 and 32 measured after 4 weeks relative to control; assay type: functional; conditions: route intraperitoneal
Mus musculus [27] = experiment: Enhancement of cognitive function in Sabra mouse at 1 mg/kg, ip administered on day 6 to 10 by eight-arm maze test; assay type: functional, organism-based; parameters: dose 1 mg/kg
Mus musculus [28] = experiment: Antiobesity activity in C57BL/6 mouse assessed as change in glucose level in blood at 5 mg/kg, ip administered on day 1, 4, 5, 7, 17, 15, 19 measured on day 11 relative to control; assay type: functional; conditions: route intraperitoneal
Mus musculus [29] = experiment: Antiobesity activity in C57BL/6 mouse assessed as change in glucose level in blood at 5 mg/kg, ip administered on day 1, 4, 5, 7, 17, 15, 19 measured on day 15 relative to control; assay type: functional; conditions: route intraperitoneal
Mus musculus [30] = experiment: Antiobesity activity in Sabra mouse assessed as reduction in body weight at 10 mg/kg, administered for 6 to 51 days via oral gavage measured on day 52 relative to control; assay type: functional, organism-based; parameters: dose 10 mg/kg
Mus musculus [31] = experiment: Antiobesity activity in C57BL/6 mouse assessed as weight loss at 5 mg/kg, ip administered on day 1, 4, 5, 7, 17, 15, 19 measured on day 9 relative to control; assay type: functional; conditions: route intraperitoneal
Hypothalamus [32] = experiment: Effect on CART gene expression in Sabra mouse hypothalamus assessed as change in mRNA level at 1 mg/kg, ip administered on day 8, 9, 10, 11, 14, 18, 24 and 32 by RT-PCR analysis relative to GAPDH; assay type: functional; conditions: route intraperitoneal

Work on `CCCCCCCC/C=C\CCCCCCCC(=O)N[C@H](CO)C(C)C` yielded an Activity (Mus musculus [1]) of -8.2%, an Activity (Mus musculus [2]) of -2.2% and an inhibition [3] of 35%. It also gave an Activity (Mus musculus [4]) of -3.6%, an Activity (Hypothalamus [5]) of -11% and an Activity (Hypothalamus [6]) of -18%. The Activity (Mus musculus [7]) was “Active”, the Activity (Mus musculus [8]) was -11.4% and the Activity (Hypothalamus [9]) was 90%. The Activity (Mus musculus [10]) was -11.8%, the Activity (Mus musculus [11]) was “Non-toxic” and the Activity (Mus musculus [12]) was 83.6%. For the same molecule, the Activity (Hypothalamus [13]) was 44.5%, the Activity (Mus musculus [14]) was 126 IU/L and the Activity (Mus musculus [15]) was -2.6%. For the same molecule, the Activity (Hypothalamus [16]) was “Dose-dependent effect”, the Activity (Mus musculus [17]) was “inactive” and the Activity (Mus musculus [18]) was 4.6%. It also gave an Activity (Mus musculus [19]) of -5.7%, an Activity (Mus musculus [20]) of -6% and an Activity (Mus musculus [21]) of -5.98%. The Activity (Mus musculus [22]) was -4.24%, the Activity (Mus musculus [23]) was 0.5% and the Activity (Mus musculus [24]) was -2.2%. For the same molecule, the Activity (Mus musculus [25]) was “Non-toxic”, the Activity (Mus musculus [26]) was 90.3% and the Activity (Mus musculus [27]) was “Active”. For the same molecule, the Activity (Mus musculus [28]) was -17.3%, the Activity (Mus musculus [29]) was -16.3% and the Activity (Mus musculus [30]) was “Active”. The Activity (Mus musculus [31]) was -3% and the Activity (Hypothalamus [32]) was 15%.
